*: point of attachment. Cbz = O=C(OCc1ccccc1)*; CH2F = FC*

In assay [1] the test system is 34 kDa Mst kinase fragment. The assay is described as follows: In-gel kinase assay of lysates of treated osteoclast-like cells. Conditions: for activation of a 34 kDa Kinase: FIG. 3; for activation of the 34 kDa Mst Kinase fragment: FIG. 2. The format is cell-based, mice. As to the method: (§1) Murine co-cultures of osteoblasts and marrow cells are prepared using the methods of Wesolowski, et al., Exp Cell Res, (1995), 219, pp. 679-686, which is incorporated by reference herein in its entirety. Bone marrow cells are harvested from 6-week-old male Balb/C mice by flushing marrow spaces of freshly isolated long bones (tibiae and femora) with α-MEM (minimal essential media) containing penicillin/streptomycin (100 I.U./ml of each and 20 mM Hepes buffer). The bone marrow cells are suspended in α-MEM and the cells are filtered through an approximately 70 μm cell strainer. The filtrate is centrifuged at about 300×g for about 7 minutes. The resulting pellet is resuspended in α-MEM supplemented with fetal calf serum (10% v/v) and 10 nM 1, 25-(OH)2 vitamin D3. These bone marrow isolates are added to sub-confluent monolayers of osteoblastic MB 1.8 cells in cell culture plates and cultured for 7 days at 37° C. in the presence of 5% CO2. Culture media is replenished ever other day. Fusion of the osteoclast precursor cells from bone marrow (with each other) to form multinucleated osteoclast-like cells typically occurs after about 7 days. Osteoclast-like cells are enriched by sequential treatment with collagenase (1 mg/mL in phosphate buffered saline) for one hour at 37° C. and EDTA (0.2 g/L in phosphate buffered saline) for 20 min at 37° C. Non-adherent cells are rinsed away by washing with phosphate buffered saline. Osteoclast-like cells which are resistant to the sequential treatments are present at about 95% purity and are maintained in α-MEM supplemented with fetal calf serum (10% v/v), 10 nM 1,25-(OH)2 vitamin D3, macrophage-colony-stimulating factor (5 ng/mL).
The compounds to be evaluated are prepared as a solution of the desired concentration in α-MEM. Examples of compounds that can be evaluated include nitrogen-containing bisphosphonates such as alendronate monosodium trihydrate, as well as compounds that block the effects of these inhibitors, such as caspase inhibitors such as Z-Val-Ala-Asp-FMK, Z-Asp-Glu-Val-Asp-FMK, and Z-Tyr-Val-Ala-Asp-FMK. Combinations of compounds can also be evaluated. The solutions of the compounds to be evaluated are added to the cultures for a time period of 17-24 hours. No treatment controls (controls not treated with comcpounds) are prepared by adding equivalent volumes of α-MEM to the control dishes.
Cells are then harvested and lysed in a HEPES (N-(2-hydroxyethyl)piperazine-N′-(2-ethansulfonic acid) or Tris buffer containing the following: β-glycerophosphate (50 mM); Na3VO4 (1 mM); NaF (1 mM); Microcystin LR (1 μM); leupeptin (10 μg/ml); aprotinin (10 μg/ml); phenylmethyl sulfonylfluoride (1 mM). Protein concentrations are determined for each lysate and 5-20 μg are loaded into each lane of a SDS-PAGE (sodium dodecyl sulfate-polyacrylamide gel electrophoresis) gel containing Myelin Basic Protein, or another kinase substrate, which has been polymerized into the gel at a concentration between 50-400 μg/ml. Molecular weight standards are also loaded into one or more lanes of the gels. In-gel kinase assays are run according to a standard procedure based on Kameshita and Fujisawa, 1989 (Anal. Biochem. 183:139-143) and of Gotoh et al., 1990 (Eur. J. Biochem. 193: 661-669), both references being incorporated by reference herein in their entirety. The proteins are electrophoresed in the above gels. The gels are then successively soaked in 50 mM HEPES, pH 7.6; 5 mM 2-mercaptoethanol and each of the following (for each wash): (a) 20% isopropanol; (b) no additions; (c) urea (6 M); (d) Urea (3 M); (e) Urea (0.75 M); and Tween 20 (0.05% vol:vol). Kinase reactions are then run by first soaking the gels in 20 mM HEPES, pH 7.6; 20 mM MgCl2; 2 mM DTT and then in the same buffer containing […] ATP (non-radioactive) with ca. 1000 cpm/pmol ^32P-γ-ATP. The gels are then washed six times with 5% trichloroacetic acid and 1% pyrophosphate.

The next assay deals with Mst 1. The assay is described as follows: In-gel kinase assay using myelin basic protein as a substrate, purified osteoclast-like cells (FIG. 4). Conditions: for effect of caspase inhibitor on activation of Mst 1 by alendronate monosodium trihydrate: 20 μM caspase inhibitor with 30 μM alendronate monosodium trihydrate, FIG. 4 lanes 6-8. The format is cell-based, mice. As to the method: as §1, with “Osteoclast-like cells which are resistant to the sequential treatments are present at about 95% purity and are maintained in α-MEM supplemented with fetal calf serum (10% v/v), 10 nM 1,25-(OH)2 vitamin D3, macrophage-colony-stimulating factor (5 ng/mL).” left out
The compounds to be evaluated are prepared as a solution of the desired concentration in α-MEM. Examples of compounds that can be evaluated include nitrogen-containing bisphosphonates such as alendronate monosodium trihydrate, as well as compounds that block the effects of these inhibitors, such as caspase inhibitors such as Z-Val-Ala-Asp-FMK, Z-Asp-Glu-Val-Asp-FMK, and Z-Tyr-Val-Ala-Asp-FMK. Combinations of compounds can also be evaluated. The solutions of the compounds to be evaluated are added to the cultures for a time period of 17-24 hours. […]
Cells are then harvested and lysed in a HEPES (N-(2-hydroxyethyl)piperazine-N′-(2-ethansulfonic acid) or Tris buffer containing the following: β-glycerophosphate (50 mM); Na3VO4 (1 mM); NaF (1 mM); Microcystin LR (1 μM); leupeptin (10 μg/ml); aprotinin (10 μg/ml); phenylmethyl sulfonylfluoride (1 mM). Protein concentrations are determined for each lysate and 5-20 μg are loaded into each lane of a SDS-PAGE (sodium dodecyl sulfate-polyacrylamide gel electrophoresis) gel containing Myelin Basic Protein, or another kinase substrate, which has been polymerized into the gel at a concentration between 50-400 μg/ml. […]

The next assay relates to osteoclast. The assay can be described thus: Osteoclast cell cultures and bone resorption assays. It counts as cell-based.
The test system of assay [2] is Mst (mammalian Sterile-20-like kinase). The assay is described as follows: Bisphosphonate-induced cleavage of Mst in osteoclasts. The format is cell-based.

In the case of `NCCCC(O)(P(=O)(O)O)P(=O)(O)O` [alendronate monosodium trihydrate, 4-amino-1-hydroxybutylidene-1,1-bisphosphonic acid monosodium trihydrate], the “activation of a 34 kDa Kinase” value in assay [1] (10 μM, about 17 hours) is reported as “activation”; in assay [1] (30 μM, about 17 hours), “activation”. In assay [1] (30 μM, FIG. 1 lane 3), the “activation of the 34 kDa Mst Kinase fragment immunoprecipitated by anti-Mst and anti-Krs antibody cocktail” value is recorded as “activated”. Moreover, the “activation of the 34 kDa Mst Kinase fragment” value is given as “activation” in assay [1] (30 μM, about 17 hours) and “activation” in assay [1] (100 μM, about 17 hours). The “activation of Mst 1” value in the assay with Mst 1 (30 μM, osteoclast-like cells, FIG. 4) is on record as “activation”.

`CC(O)(P(=O)(O)O)P(=O)(O)O` [etidronate disodium]: the “activation of the 34 kDa Mst Kinase fragment” value is on record as “fail to activate” in assay [1] (30 μM, about 17 hours) and “fail to activate” in assay [1] (100 μM, about 17 hours). Further, the “activation of a 34 kDa Kinase” value in assay [1] (100 μM, 17 hours) is on record as “fail to activate”; in assay [1] (300 μM, 17 hours), “fail to activate”.

As to `O=P(O)(O)C(Sc1ccc(Cl)cc1)P(=O)(O)O` [tiludronate disodium], the “activation of the 34 kDa Mst Kinase fragment” value in assay [1] (30 μM, about 17 hours) is “fail to activate”; in assay [1] (100 μM, about 17 hours) it was “fail to activate”. The “activation of a 34 kDa Kinase” value in assay [1] (100 μM, 17 hours) is listed as “fail to activate”; in assay [1] (300 μM, 17 hours), “fail to activate”.

On to Cbz-Val-Ala-Asp-CH2F, for which the “activation of the 34 kDa Kinase by alendronate when coincubated with the caspase inhibitor” value in assay [1] (coincubation with alendronate, FIG. 3 lane 8) is “does not activate”. For the same compound, in the assay on Mst 1, the “effect of caspase inhibitor on activation of Mst 1 by alendronate monosodium trihydrate” value (“effect of caspase inhibitor” below) was “blocked”. The “effect on the inhibitory effect otherwise observed with a bisphosphonate such as alendronate monosodium trihydrate” value in the assay with osteoclast is on record as “can block the inhibitory effect”. Further, the “effect on cleavage of Mst induced by bisphosphonates such as alendronate monosodium trihydrate” value in assay [2] is on record as “prevent the cleavage of Mst”.

“Z-Asp-Glu-Val-Asp-FMK (Cbz-DEVD-CH2F; SMILES CC(C)[C@H](NC(=O)[C@H](CCC(=O)O)NC(=O)[C@H](CC(=O)O)NC(=O)OCc1ccccc1)C(=O)N[C@@H](CC(=O)O)C(=O)CF)”: the “effect of caspase inhibitor” value in the assay with Mst 1 was “blocked”. Further, in the assay on osteoclast, the “effect on the inhibitory effect otherwise observed with a bisphosphonate such as alendronate monosodium trihydrate” value is on record as “can block the inhibitory effect”.

Take “Z-Tyr-Val-Ala-Asp-FMK (Cbz-YVAD-CH2F; SMILES CC(C)[C@H](NC(=O)[C@H](Cc1ccc(O)cc1)NC(=O)OCc1ccccc1)C(=O)N[C@@H](C)C(=O)N[C@@H](CC(=O)O)C(=O)CF)”: the “effect of caspase inhibitor” value with Mst 1 is listed as “blocked”. The “effect on the inhibitory effect otherwise observed with a bisphosphonate such as alendronate monosodium trihydrate” value in the assay with osteoclast was “can block the inhibitory effect”.

The values above are taken from patent publication US20030078211A1, “Compositions and methods for inhibiting bone resorption” (Merck & Co., Inc., priority 1998, published 2003).
